Data taken from US20220243177A1, “METHODS OF CULTURING QUIESCENT HEMATOPOIETIC STEM CELLS AND TREATMENT METHODS” (priority 2019, published 2022).

What was measured:
[1] = system: MMP-low and MMP-high HSCs; assay: LT-HSCs maintenance assay (viability, DAPI exclusion); type: cell-based
Experimental: LT-HSCs Maintenance Assay: FACS-purified MMP-low and MMP-high HSCs cells were cultured in serum-free Stemspan medium supplemented with SCF (10 ng/mL) and TPO (20 ng/mL), cultured as single or 1,000 yells or 2,000 cells/well, and treated with ConA (10-100 nM), or 2-Deoxy-Glucose (2-DG; 5-60 mM), α-Cyano-4-hydroxycinnamic acid (CHC, 10 mM), or 0.5% DMSO, incubated at 37° C. for the indicated time. Cells were then washed twice in PBS, re-suspended in PBS containing 1 μg/ml DAPI, and analyzed by flow cytometry after DAPI exclusion.

HSCs of treated mice = assay: In vivo glycolytic inhibition; design: species or system mouse
Experimental: In vivo Glycolytic Inhibition. To assess the effect of inhibition of glycolysis on MMP in HSCs, mice received intraperitoneal injections of either PBS or 2-DG 750 mg/kg every other day for 6 days after which total BM cells […] cells were isolated and MMP analyzed by flow cytometry in HSCs.

[2] = system: MMP-low and MMP-high LT-HSCs transplanted into lethally irradiated mice; type: in vivo
Experimental: Competitive In Vivo Long-Term Reconstitution Assay: MMP-low and MMP-high HSCs (LSKCD150^+CD48^−, LT-HSC; MMP^low/high) were FACS purified from CD45.1 mice and transplanted at the indicated dose of test cells with 2×10^5 CD45.2 bone marrow cells into lethally irradiated CD45.2 recipients (12 Gy as a split dose, 6.5 and 5.5 Gy, 4 hours apart). Donor (CD45.1) and recipient (CD45.2) mice were 8-12 weeks old. HSC frequency was determined by the limiting dilution assay (Hu & Smith, “ELDA: Extreme Limiting Dilution Analysis for Comparing Depleted and Enriched Populations in Stem Cell and Other Assays,” J. Immunol. Methods 347:7 0-78 (2009), which is hereby incorporated by reference in its entirety) based on the number of mice with […] reconstitution (CD45.1) at 16 weeks.
To assay the effect of glycolytic inhibition of HSCs in a competitive in vivo long-term reconstitution assay: FACS-sorted MMP-low and MMP-high LT-HSCs (CD45.1) were mixed with 2×10^5 CD45.2 total bone marrow cells and injected into lethally irradiated CD45.2 recipients. After 2 days mice were divided into four groups, MMP-low and MMP-high groups treated with PBS or 2-Deoxy-Glucose (2-DG, 1000 mg/kg) every other day for 30 days. Reconstitution of donor CD45.1 cells and lineage distribution were monitored monthly by staining blood cells with antibodies against CD45.1, CD4, CD8 (T), B220 (B), CD11b and Gr-1 (myeloid) cells. For secondary transplantations, 2×10^6 BM cells from primary recipients were transplanted into lethally irradiated secondary recipients. Donor CD45.1 cells contribution and lineage distribution were tracked from the peripheral blood by flow cytometry.

HSCs (LSK CD150+CD48-) = assay: Mitochondrial membrane potential (TMRE) by flow cytometry; type: cell-based, mouse
Experimental: To measure mitochondrial membrane potential (“MMP”), Tetramethylrhodamine ethyl ester perchlorate (“TMRE”, 100 nM), which specifically accumulates within the mitochondrial matrix of live cells, was used in accordance with the manufacturer's instructions. In brief, cells were stained with the probe at 37° C. for 15 minutes post antibody staining, followed by washing and flow cytometry analysis or FACS purification. Probe responsiveness to MMP changes were tested using controls carbonyl cyanide 3-chlorophenylhydrazone (“CCCP”) and oligomycin, which decreased and increased fluorescence of TMRE respectively. MMP-low and MMP-high thresholds were determined as the lowest and highest 25% TMRE intensity HSCs. Reactive oxygen species (“ROS”) were measured using chloromethyl-dichlorodihydrofluorescein diacetate (“CM-H2DCFDA”) fluorescent probe as described in Rimmele et al., “Mitochondrial Metabolism in Hematopoietic Stem Cells Requires Functional FOXO3,”EMBO Rep. 16: 1164-1176 (2015); Yalcin et al., “ROS-Mediated Amplification of AKT/mTOR Signalling Pathway Leads to Myeloproliferative Syndrome in Foxo3(-/-) Mice,” EMBO J. 29: 4118-4131 (2010); and Yalcin et al., “Foxo3 Is Essential for the Regulation of Ataxia Telangiectasia Mutated and Oxidative Stress-mediated Homeostasis of Hematopoietic Stem Cells,” J. Biol. Chem. 283: 25692-25705 (2008), which are hereby incorporated by reference in their entirety. Flow cytometry acquisition was performed on the BD LSRII, while cell sorting was performed on the BD Influx. All flow cytometry analyses and quantification were done using FlowJo 10 (Treestar).

[3] = system: MMP-low and MMP-high HSCs; assay: Glucose uptake assay (2NBDG); type: cell-based, mouse; conditions: STF-31 (10, 20 μM), 18 hours
Experimental: Glucose Uptake Assay: For measurement of glucose uptake, freshly FACS-purified MMP-low and MMP-high HSCs (at least 2,000 cells pooled in average from 8 mice) were cultured immediately in […] of glucose, glutamine, pyruvate free medium containing 100 or 200 μM 2-(n-(7-nitrobenz-2-oxa-1,3-diazol-4-yl amino)-2-deoxyglucose (2-NBD-Glucose, 2NBDG) for 2 hours. Cells were then washed multiple times in PBS, re-suspended in PBS containing 1 μg/ml DAPI, and analyzed by flow cytometry for 2-NBD glucose fluorescence in the FITC channel. In some experiments cells were cultured in StemSpan medium (StemCell Technology) supplemented with SCF (100 ng/ml) and TPO (20 ng/ml), treated with or without STF-31 ([…]), ConA (25, 50 nM), dimethyl alpha ketoglutarate (MOG, 1 mM), methyl pyruvate (MP, 1 mM) or DMSO, incubated at 37° C. in a humidified atmosphere with 5% CO2 for 6 or 18 hours before removing culture medium from each well, washing extensively and adding […] of glucose, glutamine, pyruvate free medium containing […] of 2 NBDG for 2 hours before washing cells multiple times in PBS and analyzing by flow cytometry. Quantification of 2NBDG uptake was measured by the geometric mean fluorescence intensity (“MFI”) as well as % of 2NBDG^+ cells.

[4] = system: MMP-low and MMP-high HSCs; assay: Autophagic vacuole formation / lysosomal localization of mitochondria (confocal immunofluorescence); type: cell-based, mouse; design: number of autolysosomes (LC3 co-localization with LAMP1) / co-localization of TOM20 with LAMP1 in MMP-low and MMP-high HSCs: dose or concentration left out as unconfirmed
From the text: Immunofluorescence Staining, Imaging, and Analysis—Super Resolution Confocal Microscopy: Images were acquired with a Zeiss LSM 880 confocal microscope equipped with Airyscan Super Resolution Imaging module, using a 100×/1.46 Alpha Plan Apochromat objective lens (Zeiss MicroImaging, Jena, Germany) with “optimal” (Nyquist) XY scaling. Z stacks through the entire cell were acquired at an […] (at least 20 optical sections) using a pixel dwell time of >50 microseconds and field dimensions of […] (20 MMP-low and 20 MMP-high HSCs analyzed). This was followed by Airyscan image processing (set at auto but rarely over 6.2) and analyses using ZEN image acquisition and processing software (ZEN blue/black). Maximum intensity projections shown in the figures were also obtained using ZEN Blue software.
Lysosomal Localization of Mitochondria. FACS-sorted MMP-low and MMP-high HSCs (LSKCD150^+CD48^-MMP-low/-high) were treated with DMSO control or leupeptin […] for 4 hours. HSCs were then fixed and imaged for TOM20 (mitochondria) and LAMP1 (lysosomes).
Autophagic Vacuole Formation. Accumulation of autophagy substrates, Translocase of outer membrane 20 (TOM20) or Map11c3a (LC3), was determined in the presence of amino acid-containing (DMSO) or -starved amino acid-depleted media, v-ATPase inhibitor concanamycin A (ConA 40nM), inhibitor of autophagosome-autolysosome fusion chloroquine (CQ, […]), or protease inhibitor, leupeptin […] following guidelines outlined for study of autophagy (Klionsky et al., “Guidelines for the Use and Interpretation of Assays for Monitoring Autophagy (3rd Edition),” Autophagy 12(1): 1-222 (2016) and Martinez-Lopez et al., “Autophagy Proteins Regulate ERK Phosphorylation,” Nat. Commun. 4: 2799 (2013), which are hereby incorporated by reference in their entirety). In brief, FACS-sorted
MMP-low and MMP- high HSCs were cultured in the presence or absence of indicated inhibitors for 4, 5, or 18 hours following which cells were subjected to immunofluorescence assays for TOM20, LC3 and/or LAMP1 or LAMP2 as described above. Analyses were performed to quantify the turnover of indicated protein in lysosomes by evaluating the accumulation of TOM20 or LC3 in the presence versus absence of an inhibitor. TOM20 and LC3 flux were determined by subtracting the colocalized value of inhibitor-untreated TOM20 or LC3 with LAMP1 from corresponding inhibitor-treated values. Images were captured using a Zeiss LSM880 Airyscan confocal microscope using 100 X objectives (Leica), and percentage colocalization was calculated using the JACoP plugin (NIH ImageJ).
Mitochondrial and Lysosome Morphology: Freshly isolated HSCs were analyzed for mitochondrial morphology. Each individual HSC (150 total) was analyzed by using Arivis Vision 4D software and classified as either fragmented or not fragmented in accordance with number of surfaces. Cells that fulfilled the definition of ‘fragmented’ contained 3 or more individual mitochondrial surfaces (Kask et al., “Fluorescence-intensity Distribution Analysis and Its Application in Biomolecular Detection Technology,” Proc. Natl. Acad. Sci. USA 96(24): 13756-13761 (1999), which is hereby incorporated by reference in its entirety). Lysosomes' fluorescence intensity or area profiling was calculated using ImageJ software enabling the detection of fluorescently labeled […] boundaries (lysosomal marker LAMP1), as reflected by sharp increases or decreases in fluorescence intensity. Channels displaying fluorescence for either mitochondria or lysosomes were thresholded with the IsoData option to delimit the boundaries of mitochondrial networks and lysosome morphology. The resulting outlines were measured using the analyzed particles option to determine the size of distinct particles representing mitochondrial networks or lysosomes. More than 50 cells/condition/experiment were analyzed for lysosomes. […]

[5] = recipients treated with 2-DG 1,000 mg/kg every other day for 30 days, after 4 months

O=CC[C@@H](O)[C@H](O)[C@H](O)CO [2-DG, 2-Deoxy D-Glucose]
effect on MMP-low HSCs (viability) ([1]; 2-DG 50 mM, 12 hours): did not have much of an effect | death of MMP-high HSCs after 24 h ([1]; 2-DG 50 mM, 24 h, not in MMP-low): even more pronounced | MMP-high HSCs died ([1]; 2-DG 50 mM, within 12 hours): over 60% | cellular viability after in vivo treatment (HSCs of treated mice; 2-DG 750 mg/kg every other day for 6 days): did not have much of an effect | overall MMP levels in long-term HSCs (HSCs of treated mice; 2-DG 750 mg/kg every other day for 6 days, intraperitoneal): slightly but significantly reduced | glucose uptake in HSCs with the highest MMP levels (HSCs of treated mice; in vivo 2-DG, 6 days): reduced glucose uptake | lineage output in recipients of MMP-high HSCs ([2]; 2-DG-treated recipients): balanced production of blood | systemic effect in the blood of transplanted mice ([2]; long-term (up to 16 weeks), normal diet): no systemic effect was detected | enhancement of in vivo competitive repopulation ability of MMP-high HSCs [2, 5]: over 70 fold | in vivo competitive repopulation ability of MMP-low HSCs [2, 5]: only subtle effects

N#CC(C#N)=NNc1cccc(Cl)c1 [CCCP, carbonyl cyanide 3-chlorophenylhydrazone]
fluorescence of TMRE (probe responsiveness control) (HSCs (LSK CD150+CD48-)): decreased

N#CC(=Cc1ccc(O)cc1)C(=O)O [CHC, a-cyano-4-hydroxycinnamate]
decrease of survival in MMP-high HSCs ([1]; 10 mM CHC, 6 hours): 80% | effect on survival of MMP-low HSCs ([1]; 10 mM CHC, 6 hours): negligible effect

CC(C)(C)c1ccc(S(=O)(=O)NCc2ccc(C(=O)Nc3cccnc3)cc2)cc1 [Glut1 inhibitor, STF-31]
glucose uptake in MMP-high HSCs [3]: decreased glucose uptake

COc1ccc(CCN(C)CCCC(C#N)(c2ccc(OC)c(OC)c2)C(C)C)cc1OC (stereo not shown) [Verapamil]
TMRE levels or proportion of MMP-low HSCs (HSCs (LSK CD150+CD48-); Verapamil 25 μM, 50 μM, MRP inhibition): did not modulate significantly

CC(=O)N[C@@H](CC(C)C)C(=O)N[C@@H](CC(C)C)C(=O)N[C@H](C=O)CCCNC(=N)N [leupeptin]
co-localization of TOM20 with LAMP1 in MMP-low and MMP-high HSCs ([4]; 4 h): enhanced similarly | increase in LC3-positive puncta, MMP-high HSCs ([4]; 4 h): 3.6 fold | increase in LC3-positive puncta, MMP-low HSCs ([4]; 4 h): 1.6 fold | number of autolysosomes (LC3 co-localization with LAMP1) ([4]; 4 h): greater number of autolysosomes | autolysosomal degradation (colocalization of LAMP1 with LC3) ([4]; ConA 40 nM, leupeptin 100 mM, chloroquine 40 mM, 18 hours, MMP-low and MMP-high HSCs): dramatically prevented autolysosomal degradation | size of lysosomes in HSCs ([4]; leupeptin, more evident in MMP-high HSCs): further increased the size of lysosomes

CC[C@H]1/C=C/C=C/C[C@@H](C)[C@H](O)[C@@](C)(O)C(=O)[C@@H](C)[C@H](O)[C@@H](C)C(=O)[C@@H](C)[C@H](O)[C@@H](C)/C=C/C(=O)O[C@@H]2[C@H](C)[C@H](CC1)O[C@]1(CC[C@H](C)[C@H](C[C@@H](C)O)O1)[C@H]2C [oligomycin]
fluorescence of TMRE (probe responsiveness control) (HSCs (LSK CD150+CD48-)): increased
